Results published in patent publication US5089497A, “Substituted piperazines as central nervous system agents” (Warner-Lambert Company, priority 1990, dated 1992).

Experiments:
[1] = tested on: Locomotor Activity in Mice; experiment: Inhibition of locomotor activity in mice; assay type: in vivo; details: Mus musculus, IP
Source text: The above test methods are incorporated herein by reference.

[2] = target: T1, [^3 H]Spiroperidol Binding (Homo sapiens, UniProt P14416); experiment: Inhibition of [^3 H]spiroperidol binding in a receptor assay
T1 construct: from tissue; host or cells: brain (striatum) membranes
Description: (§1) The compounds of Formula I are valuable dopaminergic agents. […] Thus, the compounds of Formula I were tested for their ability to inhibit locomotor activity in mice according to the assay described by J. R. McLean, et al, Pharmacology, Biochemistry and Behavior, Volume 8, pages 97-99 (1978); for their ability to inhibit [^3 H]spiroperidol binding in a receptor assay described by D. Grigoriadis and P. Seeman, Journal of Neurochemistry, Volume 44, pages 1925-1935 (1985); and for their ability to inhibit dopamine synthesis in rats according to the protocol described by J. R. Walters and R. H. Roth, Naunyn-Schmiedeberg's Archives of Pharmacology, Volume 296, pages 5-14 (1976). The above test methods are incorporated herein by reference. The data in the table show the dopaminergic activity of representative compounds of Formula I.

[3] = tested on: Brain Dopamine Synthesis; experiment: Reversal of brain dopamine synthesis in rats (inhibition of dopamine synthesis); assay type: in vivo; details: at 10 mg/kg, IP
Description: as §1

T1 sequence (P14416 whole entry): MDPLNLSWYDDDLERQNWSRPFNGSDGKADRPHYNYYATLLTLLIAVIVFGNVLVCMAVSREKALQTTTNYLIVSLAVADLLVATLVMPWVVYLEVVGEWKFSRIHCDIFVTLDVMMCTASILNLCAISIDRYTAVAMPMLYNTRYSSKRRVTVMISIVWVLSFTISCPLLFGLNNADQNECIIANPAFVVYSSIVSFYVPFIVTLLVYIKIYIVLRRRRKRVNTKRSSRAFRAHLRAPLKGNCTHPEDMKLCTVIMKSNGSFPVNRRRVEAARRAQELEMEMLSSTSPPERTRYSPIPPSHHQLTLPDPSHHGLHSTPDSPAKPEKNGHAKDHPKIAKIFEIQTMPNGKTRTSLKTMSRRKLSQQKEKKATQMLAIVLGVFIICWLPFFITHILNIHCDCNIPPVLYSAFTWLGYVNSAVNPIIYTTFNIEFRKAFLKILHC

| IC50 [2] [nM] | Structure (SMILES) | ED50 [1] [mg/kg] | % Reversal of Brain Dopamine Synthesis in Rats [3] [%] |
| --- | --- | --- | --- |
| 4180 | c1cnc(N2CCN(CCCCc3ccncc3)CC2)nc1 [Example 10, 2-[4-[4-(4-Pyridinyl)butyl]-1-piperazinyl]pyrimidine] | 10.1 | 35 |
| 2130 | O=C(CCCN1CCN(c2ccccn2)CC1)c1ccncc1 [Example 4, 1-(4-Pyridinyl)-4-[4-(2-pyridinyl)-1-piperazinyl]-1-butanone] | 7.6 | 35 |
| 2870 | O=C(CCCN1CCN(c2ccccn2)CC1)c1cccnc1 [Example 2, 1-(3-Pyridinyl)-4-[4-(2-pyridinyl)-1-piperazinyl]-1-butanone] | 6.3 | 43 |
| 279 | c1ccc(N2CCN(CCCCc3ccnc4ccccc34)CC2)nc1 [Example 13, 4-[4-[4-(2-Pyridinyl)-1-piperazinyl]butyl]quinoline] | 3.2 |  |
| 155 | c1ccc(N2CCN(CCCCc3cnc4ccccc4c3)CC2)nc1 [Example 11] | 2.2 | 100 |
| 835 | c1ccc(N2CCN(CCCCc3ccncc3)CC2)nc1 [Example 9] | 4 | 79 |

More lines, now with the values behind:

| Structure (SMILES) | IC50 [2] [nM] | ED50 [1] [mg/kg] | % Reversal of Brain Dopamine Synthesis in Rats [3] [%] |
| --- | --- | --- | --- |
| O=C(CCCN1CCN(c2ccccn2)CC1)c1cnc2ccccc2c1 [Example 6, 1-(3-Quinolinyl)-4-[4-(2-pyridinyl)-1-(piperazinyl)]-1-butanone] | 486 | 2.8 |  |
| O=C(CCCN1CCN(c2ccccn2)CC1)c1ccnc2ccccc12 [Example 7, 1-(4-Quinolinyl)-4-[4-(2-pyridinyl)-1-piperazinyl]-1-butanone] |  | 13 |  |
| c1ccc(N2CCN(CCCCc3cccnc3)CC2)nc1 [Example 8, 1-(2-Pyridinyl)-4-[4-(3-pyridinyl)butyl]piperazine] |  | 2.7 | 67 |
| c1cnc(N2CCN(CCCCc3cnc4ccccc4c3)CC2)nc1 [Example 12, 3-[4-[4-(2-Pyrimidinyl)-1-piperazinyl]butyl]quinoline] |  | 1.2 |  |
| c1ccc(N2CCN(CCCc3cccnc3)CC2)nc1 [Example 1, 1-(2-Pyridinyl)-4-[3-(3-pyridinyl)propyl]piperazine] |  | 3.1 |  |
